Our source for the IC50 and inhibition values is patent US8846704B2, “Thiopyrimidine-based compounds and uses thereof” (YM Biosciences Austraila Pty Ltd, priority 2007, dated 2014).

What all share (assay type): biochemical
The target in one assay is T1, human CSF1-R (FMS) (Homo sapiens, UniProt P07333).
T1 construct: from codon I553 to Q961; GST (N); made in house; host or cells: Sf9 insect cells (baculovirus)
T1 sequence (P07333 553-961): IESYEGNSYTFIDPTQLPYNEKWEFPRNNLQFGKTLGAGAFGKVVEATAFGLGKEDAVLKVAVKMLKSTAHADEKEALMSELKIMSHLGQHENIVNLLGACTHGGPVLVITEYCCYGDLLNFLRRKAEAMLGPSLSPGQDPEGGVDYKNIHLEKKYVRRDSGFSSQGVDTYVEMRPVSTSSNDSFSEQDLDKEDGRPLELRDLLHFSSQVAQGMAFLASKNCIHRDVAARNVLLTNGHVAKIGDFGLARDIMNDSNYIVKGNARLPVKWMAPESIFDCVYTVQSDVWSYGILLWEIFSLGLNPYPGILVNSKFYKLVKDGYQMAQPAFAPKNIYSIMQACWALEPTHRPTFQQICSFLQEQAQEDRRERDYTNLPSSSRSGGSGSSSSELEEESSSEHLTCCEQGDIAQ
Briefly: Alphascreen tyrosine kinase enzyme assay, CSF-1R (FMS) kinase domain. To be noted: read-out: FMS, FLT3, or HCK IC50_nM (FMS). How it is done:
For screening purposes, compounds (in 100% DMSO) were warmed at 37 degrees for at least 20 minutes before use. A […] stock was initially made in assay buffer, where the final concentration of DMSO was 0.3%. The stocks were then diluted in 384 well Optiplates (Packard) where the final concentration of the compound was […].
The kinase domain of human CSF1-R from codon I553 to Q961 was cloned into the pDest20 expression vector (Invitrogen). The CSF1-R plasmid was then transformed into competent DH10Bac cells (Gibco), and the recombinant baculovirus produced prepared for transfection into Sf9 insect cells.
Baculovirus preparations from each of the constructs were infected into either one or five liters of Sf9 cells (Invitrogen) grown in SF-900 medium (Invitrogen) to a cell density of approximately 1-2×10^6 cells/ml. Cells were infected with virus at a MOI of 0.8-3.0. Cells were harvested and lysed. Tyrosine kinase domains were purified by affinity chromatography on a glutathione-agarose column (Scientifix Pty. Ltd. catalog #: GSH-200).
Kinase assays were performed in 384 well Optiplates (Packard) using an Alphascreen Protein Tyrosine Kinase PY100 detection kit The compounds were pre-incubated with affinity purified PTK domain in the presence of phosphotyrosine assay buffer (10 mM HEPES, pH 7.5, 100 mM MgCl2, 25 mM NaCl, […] and 0.1% Tween 20) for 20 minutes. The compounds were then incubated with substrate in the presence of ATP. The substrate used was susbtrate-1 with the sequence biotin-EGPWLEEEEEAYGWMDF-NH2 [SEQ. ID. NO. 13] (final concentration […]). For HCK 80 μm ATP was used and incubated for 60 minutes. Alphascreen phosphotyrosine acceptor beads followed by streptavidin donor beads at a concentration of 1/100 in stop buffer were added to each well under subdued light and incubated for 2-3 hours., The Alphascreen plates were read on a Packard Fusion Alpha instrument.
In general terms: Alpha assays give light when donor and acceptor beads are brought close together.

The target of the next assay is T2, Flt 1(h) (Homo sapiens, UniProt P17948).
T2 construct: purchased Upstate Biotechnology (Dundee, UK), KinaseProfiler service
Briefly: Upstate KinaseProfiler enzyme assay, Flt 1. As to conditions: 500 nM compound; read-out: Percent inhibition at 500 nM Flt 1(h). Summed up: (§1)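 Standard profiling-service enzyme format. Kinases were brought to ten-fold working concentration in a pH 7.0 buffer of 20 mM MOPS, 1 mM EDTA, 5% glycerol, 1 mg/ml BSA, 0.01% Brij-35 and 0.1% β-mercaptoethanol; substrate working stocks were made in deionised water.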

The target of another assay is T3, Bmx(h) (Homo sapiens, UniProt P51813).
T3 construct: purchased Upstate Biotechnology (Dundee, UK), KinaseProfiler service
T3 sequence (P51813 1-675): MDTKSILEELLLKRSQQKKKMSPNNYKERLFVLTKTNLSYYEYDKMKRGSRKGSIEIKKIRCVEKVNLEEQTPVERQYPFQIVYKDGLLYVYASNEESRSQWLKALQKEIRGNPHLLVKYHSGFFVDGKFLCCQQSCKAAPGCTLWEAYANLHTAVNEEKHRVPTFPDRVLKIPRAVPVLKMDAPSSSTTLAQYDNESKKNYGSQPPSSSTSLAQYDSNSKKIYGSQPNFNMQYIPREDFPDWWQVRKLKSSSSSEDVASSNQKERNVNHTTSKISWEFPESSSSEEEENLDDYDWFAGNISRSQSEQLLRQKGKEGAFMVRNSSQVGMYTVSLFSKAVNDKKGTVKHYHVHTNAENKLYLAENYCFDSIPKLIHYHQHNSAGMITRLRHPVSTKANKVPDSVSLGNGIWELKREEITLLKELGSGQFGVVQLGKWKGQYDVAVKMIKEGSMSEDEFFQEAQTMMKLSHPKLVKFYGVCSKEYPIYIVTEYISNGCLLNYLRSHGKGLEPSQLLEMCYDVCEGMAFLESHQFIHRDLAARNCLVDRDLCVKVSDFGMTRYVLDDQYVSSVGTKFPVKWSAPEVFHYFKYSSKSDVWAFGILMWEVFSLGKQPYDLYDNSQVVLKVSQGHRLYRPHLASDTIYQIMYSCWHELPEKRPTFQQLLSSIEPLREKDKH
Briefly: Upstate KinaseProfiler enzyme assay, Bmx. To be noted: 500 nM compound; read-out: Percent inhibition at 500 nM Bmx(h). In outline:
as §1

The target in a further assay is T4, Flt 4(h) (Homo sapiens, UniProt P35916).
T4 construct: purchased Upstate Biotechnology (Dundee, UK), KinaseProfiler service
T4 sequence (P35916 25-1363): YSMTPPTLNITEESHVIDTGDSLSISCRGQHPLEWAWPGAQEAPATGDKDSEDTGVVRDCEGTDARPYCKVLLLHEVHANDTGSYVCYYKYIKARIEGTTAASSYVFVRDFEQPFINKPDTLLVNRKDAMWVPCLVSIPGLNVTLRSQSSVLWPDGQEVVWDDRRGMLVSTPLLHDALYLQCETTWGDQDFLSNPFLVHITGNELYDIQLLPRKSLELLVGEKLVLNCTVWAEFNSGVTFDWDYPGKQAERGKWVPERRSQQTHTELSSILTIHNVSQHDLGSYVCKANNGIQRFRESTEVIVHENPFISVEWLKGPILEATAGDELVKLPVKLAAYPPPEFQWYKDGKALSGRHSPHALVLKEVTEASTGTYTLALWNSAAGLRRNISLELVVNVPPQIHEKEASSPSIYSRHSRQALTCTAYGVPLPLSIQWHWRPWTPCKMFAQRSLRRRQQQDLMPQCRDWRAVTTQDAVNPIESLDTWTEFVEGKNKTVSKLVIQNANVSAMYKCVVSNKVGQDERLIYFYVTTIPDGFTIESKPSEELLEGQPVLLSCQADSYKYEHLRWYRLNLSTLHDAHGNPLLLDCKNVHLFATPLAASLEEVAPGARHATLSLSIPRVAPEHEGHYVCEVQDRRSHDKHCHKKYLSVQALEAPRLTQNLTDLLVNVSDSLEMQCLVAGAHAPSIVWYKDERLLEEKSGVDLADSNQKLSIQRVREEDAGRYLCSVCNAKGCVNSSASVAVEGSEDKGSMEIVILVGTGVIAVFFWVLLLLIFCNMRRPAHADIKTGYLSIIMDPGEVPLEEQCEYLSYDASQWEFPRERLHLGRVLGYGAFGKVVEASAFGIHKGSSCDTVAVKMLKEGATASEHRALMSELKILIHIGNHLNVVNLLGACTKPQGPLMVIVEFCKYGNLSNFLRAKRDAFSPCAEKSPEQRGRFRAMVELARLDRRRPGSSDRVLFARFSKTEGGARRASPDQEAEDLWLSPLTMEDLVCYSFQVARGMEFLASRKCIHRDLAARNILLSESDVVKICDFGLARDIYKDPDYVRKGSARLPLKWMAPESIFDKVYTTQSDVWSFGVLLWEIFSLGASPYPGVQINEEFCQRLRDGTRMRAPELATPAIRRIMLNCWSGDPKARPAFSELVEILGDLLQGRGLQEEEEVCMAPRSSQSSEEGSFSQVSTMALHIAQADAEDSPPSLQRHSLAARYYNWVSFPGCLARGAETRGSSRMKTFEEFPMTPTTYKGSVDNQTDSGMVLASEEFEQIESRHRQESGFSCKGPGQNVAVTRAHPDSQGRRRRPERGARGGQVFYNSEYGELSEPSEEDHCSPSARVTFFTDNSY
Description: Upstate KinaseProfiler enzyme assay, Flt 4. As to conditions: 500 nM compound; read-out: Percent inhibition at 500 nM Flt 4(h). Summed up:
as §1

The target in a further assay is T5, Blk(m) (Mus musculus, UniProt P16277).
T5 construct: purchased Upstate Biotechnology (Dundee, UK), KinaseProfiler service
T5 sequence (P16277 whole entry): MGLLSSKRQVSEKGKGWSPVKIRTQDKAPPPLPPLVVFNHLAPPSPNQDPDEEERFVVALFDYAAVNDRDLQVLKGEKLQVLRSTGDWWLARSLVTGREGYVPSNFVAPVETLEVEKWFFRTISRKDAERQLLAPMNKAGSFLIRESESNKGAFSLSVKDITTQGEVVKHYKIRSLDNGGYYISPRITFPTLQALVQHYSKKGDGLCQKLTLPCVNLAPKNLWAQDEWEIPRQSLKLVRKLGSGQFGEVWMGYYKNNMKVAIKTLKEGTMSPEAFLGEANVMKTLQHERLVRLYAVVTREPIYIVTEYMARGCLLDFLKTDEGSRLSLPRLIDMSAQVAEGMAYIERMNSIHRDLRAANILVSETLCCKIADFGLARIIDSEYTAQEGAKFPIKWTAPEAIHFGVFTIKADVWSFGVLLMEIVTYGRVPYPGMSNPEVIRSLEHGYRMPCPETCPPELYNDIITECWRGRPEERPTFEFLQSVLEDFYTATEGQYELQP
Briefly: Upstate KinaseProfiler enzyme assay, Blk. To be noted: 500 nM compound; read-out: Percent inhibition at 500 nM Blk(m). In outline: as §1

For the next assay, the target named is T6, BTK(h) (Homo sapiens, UniProt Q06187).
T6 construct: purchased Upstate Biotechnology (Dundee, UK), KinaseProfiler service
T6 sequence (Q06187 whole entry): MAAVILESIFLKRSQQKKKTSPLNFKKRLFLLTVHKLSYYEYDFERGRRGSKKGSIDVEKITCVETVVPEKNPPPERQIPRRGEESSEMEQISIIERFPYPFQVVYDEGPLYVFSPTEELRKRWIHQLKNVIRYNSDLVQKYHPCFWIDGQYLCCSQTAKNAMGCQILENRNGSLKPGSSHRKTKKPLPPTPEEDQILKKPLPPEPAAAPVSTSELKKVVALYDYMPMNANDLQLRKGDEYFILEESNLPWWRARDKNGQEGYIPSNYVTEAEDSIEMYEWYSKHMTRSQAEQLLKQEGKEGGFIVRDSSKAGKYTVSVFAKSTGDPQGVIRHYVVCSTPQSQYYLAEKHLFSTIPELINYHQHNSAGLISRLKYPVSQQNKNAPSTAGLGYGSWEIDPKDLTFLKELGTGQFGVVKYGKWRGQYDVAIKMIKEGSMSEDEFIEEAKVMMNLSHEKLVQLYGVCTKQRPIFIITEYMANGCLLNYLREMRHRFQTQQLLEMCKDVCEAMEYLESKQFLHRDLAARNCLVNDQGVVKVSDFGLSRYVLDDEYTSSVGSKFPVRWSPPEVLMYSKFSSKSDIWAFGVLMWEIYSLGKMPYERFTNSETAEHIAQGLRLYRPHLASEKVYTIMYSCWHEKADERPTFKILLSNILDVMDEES
Description: Upstate KinaseProfiler enzyme assay, BTK. To be noted: 500 nM compound; read-out: Percent inhibition at 500 nM BTK(h). In outline:
as §1

The next assay has as its target T7, KDR(h) (Homo sapiens, UniProt P35968).
T7 construct: purchased Upstate Biotechnology (Dundee, UK), KinaseProfiler service
Briefly: Upstate KinaseProfiler enzyme assay, KDR. To be noted: 500 nM compound; read-out: Percent inhibition at 500 nM KDR(h). In outline: as §1

SMILES strings stand for the structures.

T7 sequence (P35968 20-1356): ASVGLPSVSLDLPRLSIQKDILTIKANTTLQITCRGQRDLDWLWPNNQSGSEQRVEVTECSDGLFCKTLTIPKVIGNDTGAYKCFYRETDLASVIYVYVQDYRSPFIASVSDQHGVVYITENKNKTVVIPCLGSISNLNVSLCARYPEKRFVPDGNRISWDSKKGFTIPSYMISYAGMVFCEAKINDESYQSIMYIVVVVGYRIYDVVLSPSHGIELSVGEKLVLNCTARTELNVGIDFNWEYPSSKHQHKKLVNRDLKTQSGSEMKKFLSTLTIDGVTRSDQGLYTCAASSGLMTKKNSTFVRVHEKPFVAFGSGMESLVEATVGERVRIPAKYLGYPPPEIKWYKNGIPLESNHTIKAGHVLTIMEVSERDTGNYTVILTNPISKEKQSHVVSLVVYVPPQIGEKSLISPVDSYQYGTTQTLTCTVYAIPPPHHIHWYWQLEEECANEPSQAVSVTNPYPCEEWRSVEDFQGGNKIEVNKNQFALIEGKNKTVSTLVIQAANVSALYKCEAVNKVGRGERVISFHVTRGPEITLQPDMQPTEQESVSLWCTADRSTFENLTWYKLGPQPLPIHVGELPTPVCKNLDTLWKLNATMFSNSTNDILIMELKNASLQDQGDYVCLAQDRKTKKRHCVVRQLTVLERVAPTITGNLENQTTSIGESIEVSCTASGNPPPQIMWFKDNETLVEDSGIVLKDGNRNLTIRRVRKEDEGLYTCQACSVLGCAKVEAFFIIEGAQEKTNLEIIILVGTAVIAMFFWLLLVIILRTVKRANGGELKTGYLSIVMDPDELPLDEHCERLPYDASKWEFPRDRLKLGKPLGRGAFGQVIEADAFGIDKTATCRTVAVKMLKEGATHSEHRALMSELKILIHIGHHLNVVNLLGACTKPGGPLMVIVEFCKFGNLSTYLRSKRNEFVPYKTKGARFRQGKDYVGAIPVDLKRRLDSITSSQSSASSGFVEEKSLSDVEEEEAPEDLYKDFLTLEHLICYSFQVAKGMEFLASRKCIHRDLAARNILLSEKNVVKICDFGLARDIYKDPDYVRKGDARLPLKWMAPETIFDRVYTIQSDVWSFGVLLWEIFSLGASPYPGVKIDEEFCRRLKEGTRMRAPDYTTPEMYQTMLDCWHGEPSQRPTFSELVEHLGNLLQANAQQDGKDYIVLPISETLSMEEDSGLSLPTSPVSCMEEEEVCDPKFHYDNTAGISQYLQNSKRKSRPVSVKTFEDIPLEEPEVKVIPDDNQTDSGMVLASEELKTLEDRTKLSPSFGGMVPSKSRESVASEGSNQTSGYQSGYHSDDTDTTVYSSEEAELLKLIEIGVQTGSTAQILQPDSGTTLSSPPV

As to `COc1ccc(Nc2nccc(Sc3ccc(NC(=O)CC#N)cc3)n2)cc1OC` [Compound 101, 2-cyano-N-(4-(2-(3,4-dimethoxyphenylao)pyrimidin-4-ylthio)phenyl)acetamide], the IC50 on human CSF1-R (FMS) is less than 100 nM.

The term inhibition denotes the drop in the measured response relative to a control, in per cent. In the case of `C=CC(=O)Nc1ccc(Sc2nc(Nc3ccc(N4CCOCC4)cc3)ncc2C)cc1` [Compound 124, N-(4-(5-methyl-2-(4-morpholinophenylao)pyrimidin-4-ylthio)phenyl)acrylamide], the inhibition at 0.5 µM on Flt 1(h), on Bmx(h), on Flt 4(h), on Blk(m), at BTK(h) and at KDR(h) was 100% each time. The IC50 on human CSF1-R (FMS) was less than 500 nM.

On to `C=CC(=O)Nc1ccc(Sc2nc(Nc3ccc(N4CCC(C(=O)OCC)CC4)cc3)ncc2C)cc1` [Compound 292, ethyl 1-(4-(4-(4-acrylamidophenylthio)-5-methylpyrimidin-2-ylao)phenyl)piperidine-4-carboxylate], for which the inhibition at 0.5 µM stood at 67% at Flt 1(h); 59% on Bmx(h); 100% at Flt 4(h); 10% on Blk(m); 3% at BTK(h); 96% at KDR(h).

Take `C=CC(=O)Nc1ccc(Sc2nc(Nc3ccc(CNS(C)(=O)=O)cc3)ncc2C)cc1` [Compound 294, N-(4-(5-methyl-2-(4-(methylsulfonamidomethyl)phenylao)pyrimidin-4-ylthio)phenyl)acrylamide]: the inhibition at 0.5 µM is 94% at Flt 1(h); 92% at Bmx(h); 100% on Flt 4(h); 37% at Blk(m); 77% on BTK(h); 93% on KDR(h).

On to `C=CC(=O)Nc1ccc(Sc2ccnc(Nc3cccc(S(N)(=O)=O)c3)n2)cc1` [Compound 364, N-(4-(2-(3-sulfamoylphenylao)pyrimidin-4-ylthio)phenyl)acrylamide], for which the inhibition at 0.5 µM on Flt 1(h) stood at 97%; on Bmx(h), 73%; at Flt 4(h), 99%; on Blk(m), 81%; at KDR(h) it was 96%.
